The values that follow come from patent US8841268B2, “Method and kit for detection of cancer, and therapeutic agent for cancer” (Sapporo Medical University, priority 2008, dated 2014).

Read-outs that look alike come from different tables or passages of the source.

Common to all, as to assay type: cell-based, human
In series [1] the test system is HCT116 cell. As to the kind of experiment: miR-34b/c expression in HCT116 cell treated with DAC and/or ADR. The note with it: DAC 2 μM, 72 hours, ADR 0.5 μg/ml, 24 hours, FIG. 5A. The source says:
U6 snRNA was used as an internal control.

The test system of a further series is p53-knockout HCT116 cell. As to the kind of experiment: miR-34b/c expression in p53-knockout HCT116 cell treated with DAC and/or ADR. The note with it: HCT116 cell in which p53 gene has been knocked out; DAC 2 μM, 72 hours; ADR 0.5 μg/ml, 24 hours; FIG. 5B.
The subject of series [2] is p53. The note with it: HCT116 cell (WT); DAC 2 μM, 72 hours; ADR 0.5 μg/ml, 24 hours; FIG. 5C.
Series [3] deals with p21. In words: Western-blotting of p21 expression in HCT116 cell (WT). The settings on record: DAC 2 μM, 72 hours, ADR 0.5 μg/ml, 24 hours, FIG. 5C. The source says: The expression of β-actin was confirmed as control, and the expression of p21 gene which is known as a representative target of p53 was similarly confirmed.
In series [4] the test system is p53. The note with it: p53-knockout HCT116 cell (p53KO); DAC 2 μM, 72 hours; ADR 0.5 μg/ml, 24 hours; FIG. 5C.
Series [5] deals with p21. The note with it: p53-knockout HCT116 cell (p53KO); DAC 2 μM, 72 hours; ADR 0.5 μg/ml, 24 hours; FIG. 5C.
Series [6] has as its system HCT116 cell. As to the kind of experiment: Expression analysis of miRNAs (TaqMan miRNA Assay, real-time PCR) in HCT116 cell. The settings on record: DAC 2 μM, 72 hours.
Series [7] has as its system 9 colorectal cancer cell lines (CaCO2, Colo320, DLD1, HCT116, HT29, LoVo, RKO, SW48 and SW480). In words: Expression analysis of miR-34b and miR-34c in colorectal cancer cell lines with DAC treatment. The settings on record: all 9 colorectal cancer cell lines. The source says:
DKO2 cell was used as a control, and U6 snRNA was used as an internal control.
The expression level of miRNA was converted to the ratio of the expression level of each miRNA to that of U6 snRNA (i.e., the expression level of each miRNA/the expression level of U6 snRNA) and analyzed.

Series [8] has as its system HCT116 cell. In words: Microarray analysis of gene expression in HCT116 cell. The note with it: miRNA by electroporation, RNA after 48 hours, vs control miRNA, DAC 2 μM, 72 hours vs mock, FIG. 13A. The procedure: Firstly, in order to search for a gene whose expression is decreased by miR-34b/c expression, control miRNA (control miRNA (Ambion)), miR-34b (miR-34b precursor (Ambion)) and miR-34c (miR-34c precursor (Ambion)) were introduced into a HCT116 cell by electroporation, and after 48 hours RNA was extracted and subjected to microarray analysis.

The test system of series [9] is MET (hepatocyte growth factor receptor) gene. As to the kind of experiment: Real-time RT-PCR (TaqMan Gene Expression Assay) of MET gene in HCT116 cells. The settings on record: miRNA by electroporation, RNA after 48 hours, vs control miRNA, DAC 2 μM, 72 hours vs mock, FIG. 13B. A general note: In qPCR the cycle at which signal appears reflects the starting amount.
The test system of series [10] is (v-myb myeloblastosis viral oncogene homolog) gene. The settings on record: HCT116 cells, DAC 2 μM, 72 hours vs mock, FIG. 13B.
Series [11] deals with CDK4 (cyclin-dependent kinase 4) gene. As to the kind of experiment: Real-time RT-PCR (TaqMan Gene Expression Assay) of CDK4 gene in HCT116 cells. The note with it: miRNA by electroporation, RNA after 48 hours, vs control miRNA, DAC 2 μM, 72 hours vs mock, FIG. 13B.
The next series deals with CCNE2 (Cyclin E2) gene. As to the kind of experiment: Real-time RT-PCR (TaqMan Gene Expression Assay) of CCNE2 gene in HCT116 cells. The settings on record: miRNA by electroporation, RNA after 48 hours, vs control miRNA, DAC 2 μM, 72 hours vs mock, FIG. 13B.
Series [12] concerns SFRS2 (splicing factor, arginine/serine-rich 2) gene. As to the kind of experiment: Real-time RT-PCR (TaqMan Gene Expression Assay) of SFRS2 gene in HCT116 cells. The settings on record: miRNA by electroporation, RNA after 48 hours, vs control miRNA, DAC 2 μM, 72 hours vs mock, FIG. 13B.
For a further series, the system named is MET. In words: Western-blot analysis of MET protein in HCT116 cell. The note with it: anti-MET antibody, vs control miRNA / mock, FIG. 13C. The source says:
(§1) Furthermore, for foregoing genes, changes in protein level were verified by western-blot analysis using an anti-MET antibody (MET), anti-CDK4 antibody (CDK4), anti-SFRS2 antibody (SFRS2), and anti-actin antibody as control (actin), as shown in FIG. 13C. […] The result above also indicates a more marked decrease in protein level than in RNA level.

A further series has as its system CDK4. As to the kind of experiment: Western-blot analysis of CDK4 protein in HCT116 cell. The settings on record: anti-CDK4 antibody, vs control miRNA / mock, FIG. 13C.
From the text: as §1

A further series deals with SFRS2. As to the kind of experiment: Western-blot analysis of SFRS2 protein in HCT116 cell. The settings on record: anti-SFRS2 antibody, vs control miRNA / mock, FIG. 13C.
From the text: as §1

Series [13] has as its system 9 colorectal cancer cell lines (CaCO2, Colo320, DLD1, HCT116, HT29, LoVo, RKO, SW48 and SW480). In words: BTG4 expression by RT-PCR in colorectal cancer cell lines treated with DAC. The note with it: DAC 2 μM, 72 hours, FIG. 14A.
[14] abbreviates: miRNA by electroporation, RNA after 48 hours, vs control miRNA.

Take `COc1cccc2c1C(=O)c1c(O)c3c(c(O)c1C2=O)C[C@@](O)(C(=O)CO)C[C@@H]3O[C@H]1C[C@H](N)[C@H](O)[C@H](C)O1` [ADR, adriamycin]: the values for the miR-34b/c expression entry in the series with HCT116 cell [1] and with p53-knockout HCT116 cell were “induction of miR-34b/c expression was observed” and “not at all”, respectively. Also, the “p53 expression (protein level)” value is “induced by ADR treatment” in the series with p53 [2] and “neither p53 nor p21 was changed at all” in the series on p53 [4]. Further, in the series on p21 [3], the “expression of p21 gene, a p53 target” value was “also induced in similar pattern to that of p53”. Also, the p21 expression result with p21 [5] is “neither p53 nor p21 was changed at all”.
`Nc1ncn([C@H]2C[C@H](O)[C@@H](CO)O2)c(=O)n1` [DAC, 5-aza-2′-deoxycytidine]: the “expression of miRNAs (expression level of each miRNA/the expression level of U6 snRNA)” value in the series on HCT116 cell [6] (157 miRNAs compared, FIG. 2) is given as “induced the expression of 37 miRNAs”. In addition, in the series on HCT116 cell [6] (FIG. 3A), the “expression levels of miRNA34b and miR-34c” value is listed as “restores their expression”. Besides, the “expression of miR-34b” value in [7] (FIG. 4A) is reported as “induces the expression”. In addition, the “expression of miR-34c” value in series [7] (FIG. 4B) is on record as “induces the expression”. Moreover, the miR-34b/c expression entry with HCT116 cell [1] is reported as “induction of miR-34b/c expression was observed”. Moreover, in the series with HCT116 cell [8], the “gene expression patterns (microarray)” value is “also decreased by DAC treatment”. Also, in [9], the “mRNA expression level of MET gene” value is given as “decreased”. Moreover, in series [10] ([…]), the “mRNA expression level of MTB gene” value is “decreased”. The “mRNA expression level of CDK4 gene” value in [11] is “decreased”. Moreover, the “mRNA expression level of CCNE2 gene” value with CCNE2 (Cyclin E2) gene is recorded as “decreased”. The “mRNA expression level of SFRS2 gene” value in series [12] is given as “decreased”. The “expression level of MET protein” value in the series with MET is recorded as “decreased”. Besides, the “expression level of CDK4 protein” value in the series on CDK4 is “decreased”. Also, in the series with SFRS2, the “expression level of SFRS2 protein” value is listed as “decreased”. In series [13], the “mRNA expression of BTG4 gene” value is “markedly increased (restored)”.
“miR-34b: miR-34b precursor (Ambion); matured type sequence UAGGCAGUGUCAUUAGCUGAUUG (SEQ ID NO: 2) (precursor form, further chemistry not given here)”: the “gene expression patterns (microarray)” value in the series on HCT116 cell [8] is “a group of genes whose expression was decreased”. Also, in series [9], the “mRNA expression level of MET gene” value is “decreased”. Also, in series [10] (setting [14]), the “mRNA expression level of MTB gene” value is given as “decreased”. Further, the “mRNA expression level of CDK4 gene” value in series [11] was “decreased”. For the same compound, in the series with CCNE2 (Cyclin E2) gene, the “mRNA expression level of CCNE2 gene” value is “decreased”. Also, the “mRNA expression level of SFRS2 gene” value in series [12] is on record as “decreased”.
Regarding “miR-34c: miR-34c precursor (Ambion); matured type sequence AGGCAGUGUAGUUAGCUGAUUGC (SEQ ID NO: 4) (precursor form, further chemistry not given here)”, in the series with HCT116 cell [8], the “gene expression patterns (microarray)” value is given as “a group of genes whose expression was decreased”. Further, the “mRNA expression level of MET gene” value in series [9] is “decreased”. For the same compound, in series [10] (setting [14]), the “mRNA expression level of MTB gene” value is “decreased”. The “mRNA expression level of CDK4 gene” value in series [11] is listed as “decreased”. Further, the “mRNA expression level of CCNE2 gene” value in the series on CCNE2 (Cyclin E2) gene is listed as “decreased”. Further, the “mRNA expression level of SFRS2 gene” value in [12] is recorded as “decreased”.
